# In US20020019372A1 (priority 2000, published 2002):
# Tests used:
# [1] = test system: renal proximal tubular cells; experiment: Monolayer DNA content as marker of renal proximal tubular cell proliferation after DCVC injury; assay type: cell-based, rabbit
# Procedure: (§1) Rabbit renal proximal tubules were isolated by iron oxide perfusion method and grown in 35 mm culture dishes in improved conditions as described previously (Nowak and Schnellmann, 1996). The purity of the renal proximal tubular S1 and S2 segments isolated by this method is approximately 96%. The culture medium was a 50:50 mixture of Dulbecco's modified Eagle's essential medium (DMEM) and Ham's F-12 nutrient mix without phenol red, pyruvate, and glucose, supplemented with 15 mM NaHCO3, 15 mM N-2hydroxyethylpiperazine-N′-2-ethanesulfonic acid, and 6 mM lactate (pH7.4, 295 mosmol/kg). Human transferrin (5 μg/ml), selenium (5 ng/ml), hydrocortisone (50 nM), bovine insulin (10 nM), and L-ascorbic acid-2-phosphate (0.05 mM or 0.5 mM) were added to the medium immediately before daily media change (2 ml/ dish).
# (§2) Renal proximal tubular cells monolayers reached confluence within 5 days and were treated with dichlorovinyl-L-cysteine (0.2 mM, 100 min) on day 6 of culture. Following dichlorovinyl-L-cysteine exposure, the remaining monolayer was washed with fresh medium and cultured for 4 days. Samples of renal proximal tubular cells were taken at various time points after dichlorovinyl-L-cysteine exposure for measurements of cellular functions. Prior to measurement of any functions, renal proximal tubular cells were washed with ice cold phosphate buffered saline (pH 7.4) or 37° C. culture media (for measurement of oxygen consumption, QO2) to remove non-viable cells.
# Monolayer DNA content was used as a marker of renal proximal tubular cells proliferation. Monolayers were solubilized in 0.05 M Tris-HCl (pH 7.4) containing 0.15 M NaCl and 0.05% Triton X-100 and DNA determined in cell lysates by the method of Labarca and Paigen (1980) as described previously (Nowak and Schnellmann, 1996). Protein was measured by the method of Lowry et al. (1951).
# [2] = test system: renal proximal tubular cells; experiment: Basal oxygen consumption (QO2) as marker of mitochondrial function; assay type: cell-based, rabbit
# Procedure: as §1, §2
# (§3) Washed renal proximal tubular cells monolayers were gently detached from the dishes with a rubber policeman, suspended in 37° C. culture medium and transferred to the oxygen consumption (QO2) measurement chamber. QO2 was measured polarographically using Clark type electrode as described previously (Nowak and Schnellmann, 1996; Nowak et al., 1998; Nowak et al., 1999). Ouabain-insensitive QO2 was measured in the presence of 0.1 mM ouabain and was calculated as a difference between basal and ouabain-insensitive QO2.
# [3] = test system: renal proximal tubular cells; experiment: Ouabain-sensitive QO2 as marker of active Na+ transport; assay type: cell-based, rabbit
# Procedure: as §1, with “dish). […]” for “dish).”
# as §3
# [4] = test system: α1 subunit of Na^+-K^+-ATPase; experiment: Immunocytochemical localization of Na+-K+-ATPase (confocal laser scanning microscopy); assay type: cell-based, rabbit; settings: for effect on Na+-K+-ATPase protein of the plasma membrane: DCVC 0.2 mM, independent of AscP concentration
# Procedure: as §1, §2
# At various time points following dichlorovinyl-L-cysteine exposure, control and DCVC-treated renal proximal tubular cells monolayers were washed 3 times with ice-cold PBS and fixed in 3.7% formaldehyde. Following permeabilization with 100% methanol for 10 min at −20° C., renal proximal tubular cells monolayers were washed with PBS containing 0.1% BSA and 0.3% Triton X-100 (PBS/0.1% BSA/0.3% Triton X-100) for 15 min at room temperature. Blocking of non-specific binding was performed for 30 min in PBS containing 8% BSA. […]
# [5] = test system: renal proximal tubular cells; experiment: Ouabain-insensitive oxygen consumption (QO2); assay type: cell-based, rabbit; settings: for decrease of ouabain-insensitive QO2: 24 hr after DCVC
# Procedure: as §1, §2, §3
# [6] = test system: renal proximal tubular cells; settings: Nowak et al., 1999, cited from earlier work
# [7] = DCVC-injured RPTC, 0.5 mM AscP, day 4
molecule,measurement,setting,value
"O=C1O[C@H]([C@@H](O)CO)C(O)=C1OP(=O)([O-])[O-].[Mg+2] [L-ascorbic acid phosphate, L-Ascorbic acid-2-phosphate magnesium salt]",proliferation and recovery of physiological functions and basolateral Na+-K+-ATPase expression,"[1]; DCVC-injured RPTC, 0.5 mM AscP, by day 4 (summary)","proliferated, recovered all examined physiological functions and the basolateral membrane expression of Na^+-K^+-ATPase by day 4"
same,increase of monolayer DNA content,"[1]; DCVC-injured RPTC, 0.5 mM AscP, day 2",1.6 fold
same,increase of monolayer DNA content,[1]; [7],2.3 fold
same,monolayer DNA content relative to controls,[1]; [7],81 % of controls
same,"monolayer DNA content in control RPTC, 0.05 vs 0.5 mM",[1]; control RPTC without DCVC,equivalent
same,"basal QO2 in control RPTC, 0.05 vs 0.5 mM",[2]; control RPTC without DCVC,equivalent
same,time of return of active Na+ transport to control levels,"[3]; DCVC-injured RPTC, pharmacological concentrations of AscP (discussion)",occurred on day 4
same,"ouabain-sensitive QO2 in control RPTC, 0.05 vs 0.5 mM",[3]; control RPTC without DCVC,equivalent
same,"basolateral Na+-K+-ATPase protein levels and distribution in control RPTC, physiological vs pharmacological concentration",[4]; control RPTC without DCVC,no difference
same,remaining decrease of ouabain-insensitive QO2,"[5]; DCVC-injured RPTC, through day 4, 0.05 mM AscP",45%
same,ouabain-insensitive QO2,"[5]; control RPTC without DCVC, 0.05 mM AscP",9.7±1.6 nmol O2/min/mg protein
same,ouabain-insensitive QO2,"[5]; control RPTC without DCVC, 0.5 mM AscP",12.9±1.5 nmol O2/min/mg protein
"N[C@@H](CSC(Cl)=CCl)C(=O)O [dichlorovinyl-L-cysteine, S-(1,2dichlorovinyl)-L-cysteine]",renal proximal tubular cells death and loss from the monolayer,"[1]; 24 hr after DCVC 0.2 mM, 100 min, independent of AscP 0.05 or 0.5 mM",60%
same,loss of monolayer DNA,"[1]; 24 hr after DCVC 0.2 mM, 100 min, regardless of AscP 0.05 or 0.5 mM",61%
same,decrease of basal QO2,"[2]; 24 hr after DCVC, RPTC grown in 0.05 mM AscP",59%
same,decrease in mitochondrial function,"[2]; DCVC 0.2 mM, 100 min, independent of AscP concentration",54%
same,decrease of basal QO2,"[2]; after DCVC, RPTC grown in 0.5 mM AscP",62%
same,effect on Na+-K+-ATPase protein of the plasma membrane,[4],loss of Na^+-K^+-ATPase protein from the basolateral membrane
same,effect on Na+-K+-ATPase protein of the plasma membrane,[4]; listed as DCVC,loss of the Na^+-K^+-ATPase protein from the basolateral domain
same,cell death and loss from the monolayer,[6]; earlier study,30%
same,decrease of ouabain-insensitive QO2,[5]; 0.05 mM AscP,32%
same,decrease of ouabain-insensitive QO2,[5]; 0.5 mM AscP,50%
same,ouabain-insensitive QO2,"[5]; DCVC-treated RPTC, 24 hr, 0.05 mM AscP",6.6±2.6 nmol O2/min/mg protein
same,ouabain-insensitive QO2,"[5]; DCVC-treated RPTC, 24 hr, 0.5 mM AscP",6.5±1.0 nmol O2/min/mg protein
"EGF: epidermal growth factor, 10 ng/ml daily treatments",effect on inhibition of RPTC regeneration after DCVC-induced injury,"[6]; daily treatments, 10 ng/ml",can be overcome
